In patent US20130184222A1, “[…] ACTIVE COMPOSITIONS AND THEIR METHODS OF USE” (AGIOS PHARMACEUTICALS, INC, priority 2010, published 2013) one finds IC50 data, which are given here for 53 compounds.

This test concerns the target IDH1 R132H (Homo sapiens, UniProt O75874, R132H). In words: In vitro assay for IDH1 R132H inhibitors (NADPH/aKG, resazurin detection). The format is biochemical. To be noted: Table 4A; 0.2 μg/ml IDH1 R132H, 50 minutes at room temperature; read-out: IC50 (uM), IDH1 R132H Inhibition. On the procedure:
Assays were conducted in a volume of 76 μl assay buffer (150 mM NaCl, 10 mM MgCl2, 20 mM Tris pH 7.5, 0.03% bovine serum albumin) as follows in a standard 384-well plate: To 25 ul of substrate mix (8 uM NADPH, 2 mM aKG), 1 μl of test compound was added in DMSO. The plate was centrifuged briefly, and then 25 μl of enzyme mix was added (0.2 μg/ml IDH1 R132H) followed by a brief centrifugation and shake at 100 RPM. The reaction was incubated for 50 minutes at room temperature, then 25 μl of detection mix (30 μM resazurin, […]) was added and the mixture further incubated for 5 minutes at room temperature. The conversion of resazurin to resorufin was detected by fluorescent spectroscopy at Ex544 Em590 c/o 590.
The compounds of Formula I set forth in Table 1 and the compounds set forth in Table 2 were tested in this assay and the results set forth below in Table 4A and 4B.
For orientation: The colour change of resazurin is a common sign of viable cells or microbes.

One may read the IC50 as the concentration that inhibits the measured activity by half.

IDH1 R132H, sequence (O75874 whole entry R132H): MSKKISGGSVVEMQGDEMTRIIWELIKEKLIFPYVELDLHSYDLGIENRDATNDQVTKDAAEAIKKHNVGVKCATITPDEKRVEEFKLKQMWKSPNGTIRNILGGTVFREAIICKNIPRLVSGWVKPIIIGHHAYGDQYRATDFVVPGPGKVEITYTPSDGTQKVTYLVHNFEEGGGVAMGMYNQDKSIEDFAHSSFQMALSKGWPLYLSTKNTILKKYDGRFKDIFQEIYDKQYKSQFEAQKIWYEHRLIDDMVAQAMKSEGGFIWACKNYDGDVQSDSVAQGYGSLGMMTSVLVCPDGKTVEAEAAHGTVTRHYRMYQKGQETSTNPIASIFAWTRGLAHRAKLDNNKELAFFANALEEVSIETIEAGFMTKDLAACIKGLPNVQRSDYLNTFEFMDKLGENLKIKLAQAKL

In the case of `Cc1ccccc1C(C(=O)NC1CCCCC1)N(C(=O)CNS(=O)(=O)c1ccccc1)c1cccc(F)c1` (centres unmarked) [Compound 29], the half-maximal inhibitory concentration (IC50) fell in the range of 0.1 to 1 µM.
As for `O=C(NC1CCCCC1)C(c1ccccc1)N(C(=O)Cc1cccs1)c1cccc(F)c1` (centres unmarked) [Compound 30], the IC50 was 0.1 to 1 µM.
To `O=C(NC1CCCCC1)C(c1ccccc1Cl)N(C(=O)Cc1cccs1)c1cccc(F)c1` (centres unmarked) [Compound 31] belongs not above 0.1 µM.
Turning to `Cc1ccccc1C(C(=O)NC1CCCCC1)N(C(=O)c1ccccn1)c1cccc(F)c1` (centres unmarked) [Compound 32], the IC50 fell in the range of 1 to 10 µM.
As for `O=C(NC1CCCCC1)C(c1ccccc1F)N(C(=O)c1ccccn1)c1cccc(F)c1` (centres unmarked) [Compound 33], the figure is 0.1 to 1 µM; as for `O=C(NC1CCCCC1)C(c1ccccc1F)N(C(=O)Cc1cccs1)c1cccc(F)c1` (centres unmarked) [Compound 34], not above 0.1 µM; as for `O=C(NC1CCCCC1)C(c1ccccc1Cl)N(C(=O)Cc1cccs1)c1ccccc1F` (centres unmarked) [Compound 35], 0.1 to 1 µM.
As for `O=C(NC1CCCCC1)C(c1ccccc1)N(C(=O)Cc1cccs1)c1ccccc1F` (centres unmarked) [Compound 36], the 50% inhibitory concentration (IC50) fell in the range of 0.1 to 1 µM.
For the compound `O=C(NC1CCCCC1)C(c1ccccc1F)N(Cc1cccs1)C(=O)c1ccccn1` (centres unmarked) [Compound 37], the half-inhibitory concentration (IC50) lay within 10 to 100 µM.
`O=C(NC1CCCCC1)C(c1ccccc1F)N(Cc1cccs1)C(=O)Cc1cccs1` (centres unmarked) [Compound 38]: the 50% inhibitory concentration (IC50) was in the range of 1 to 10 µM.
On to `Cc1ccccc1C(C(=O)NC1CCCCC1)N(C(=O)Cc1cccs1)c1ccccc1F` (centres unmarked) [Compound 39], for which the IC50 lay in the range of 0.1 to 1 µM.
For the compound `Cc1ccccc1C(C(=O)NC1CCCCC1)N(C)C(=O)Cc1cccs1` (centres unmarked) [Compound 40], the IC50 was not below 100 µM.
`Cc1ccccc1C(C(=O)NC1CCCCC1)N(C(=O)Cc1cccs1)C(C)C` (centres unmarked) [Compound 41]: the IC50 was 10 to 100 µM.
With `Cc1ccccc1C(C(=O)NC1CCCCC1)N(C(=O)Cc1cccs1)c1ccccc1` (centres unmarked) [Compound 42], the IC50 lay within 0.1 to 1 µM.
To `O=C(NC1CCCC1)C(c1ccccc1F)N(C(=O)Cc1cccs1)c1cccc(F)c1` (centres unmarked) [Compound 43] belongs 0.1 to 1 µM.
On to `O=C(NC1CCCC1)C(c1ccccc1Cl)N(C(=O)Cc1cccs1)c1cccc(F)c1` (centres unmarked) [Compound 44], for which the IC50 was not above 0.1 µM.
For `O=C(NC1CCCC1)C(c1ccccc1)N(C(=O)Cc1cccs1)c1cccc(F)c1` (centres unmarked) [Compound 45], the IC50 was in the range of 0.1 to 1 µM.
For the compound `Cc1ccccc1C(C(=O)NC1CCCC1)N(C(=O)Cc1cccs1)c1ccccc1F` (centres unmarked) [Compound 46], the IC50 lay in the range of 0.1 to 1 µM.
Consider `O=C(NC1CCCC1)C(c1ccccc1F)N(C(=O)Cc1cccs1)c1ccccc1F` (centres unmarked) [Compound 47], for which the IC50 lay within 0.1 to 1 µM.
`O=C(NC1CCCC1)C(c1ccccc1)N(C(=O)Cc1cccs1)c1ccccc1F` (centres unmarked) [Compound 48]: the IC50 was in the range of 0.1 to 1 µM.
For `COc1cccc(C(C(=O)NC2CCCCC2)N(C(=O)Cc2cccs2)c2cccc(F)c2)c1` (centres unmarked) [Compound 49], the IC50 fell in the range of 0.1 to 1 µM.
To `O=C(NC1CCCCC1)C(c1ccc(F)cc1)N(C(=O)Cc1cccs1)c1cccc(F)c1` (centres unmarked) [Compound 50] belongs 0.1 to 1 µM.
`Cc1ccsc1C(C(=O)NC1CCCCC1)N(C(=O)Cc1cccs1)c1cccc(F)c1` (centres unmarked) [Compound 51]: the half-inhibitory concentration (IC50) was 0.1 to 1 µM.
`CCOc1cc(C(C(=O)NC2CCCCC2)N(C(=O)Cc2cccs2)c2cccc(F)c2)ccc1OC` (centres unmarked) [Compound 52]: the concentration for half-maximal inhibition (IC50) was not below 100 µM.
In the case of `Cc1ccccc1[C@H](C(=O)NC1CCCCC1)N(C(=O)Cc1cccs1)c1cccc(F)c1` [Compound 53], the concentration for half-maximal inhibition (IC50) was in the range of 1 to 10 µM.
As to `O=C(NC1CCCCC1)C(c1ccccc1)N(C(=O)c1ccccn1)c1cccc(F)c1` (centres unmarked) [Compound 55], the IC50 lay in the range of 1 to 10 µM.
As to `O=C(NC1CCCCC1)C(c1ccccc1Cl)N(C(=O)c1ccccn1)c1cccc(F)c1` (centres unmarked) [Compound 56], the IC50 is 0.1 to 1 µM.
To `O=C(NC1CCCCC1)C(c1ccccc1Cl)N(C(=O)c1ccccn1)c1ccccc1F` (centres unmarked) [Compound 57] belongs 1 to 10 µM; to `O=C(NC1CCCCC1)C(c1ccccc1)N(C(=O)c1ccccn1)c1ccccc1F` (centres unmarked) [Compound 58], 1 to 10 µM.
As for `Cc1ccccc1C(C(=O)NC1CCCCC1)N(C(=O)c1ccccn1)c1ccccc1F` (centres unmarked) [Compound 59], the IC50 is 1 to 10 µM.
As for `O=C(NC1CCCCC1)C(c1ccccc1F)N(C(=O)c1ccccn1)c1ccccc1F` (centres unmarked) [Compound 60], the concentration for half-maximal inhibition (IC50) lay within 0.1 to 1 µM.
Turning to `O=C(NC1CCCCC1)C(C1CCCC1)N(C(=O)Cc1cccs1)c1cccc(F)c1` (centres unmarked) [Compound 61], the half-maximal inhibitory concentration (IC50) lay within 1 to 10 µM.
Regarding `O=C(NC1CCCCC1)C(c1ccccc1[N+](=O)[O-])N(C(=O)Cc1cccs1)c1cccc(F)c1` (centres unmarked) [Compound 62], the IC50 is 0.1 to 1 µM.
For the compound `O=C(NC1CCCCC1)C(C1CCCCC1)N(C(=O)Cc1cccs1)c1cccc(F)c1` (centres unmarked) [Compound 63], the IC50 was 1 to 10 µM.
For the compound `CCOc1ccccc1C(C(=O)NC1CCCCC1)N(C(=O)Cc1cccs1)c1cccc(F)c1` (centres unmarked) [Compound 64], the IC50 fell in the range of 1 to 10 µM.
`CCc1ccccc1C(C(=O)NC1CCCCC1)N(C(=O)Cc1cccs1)c1cccc(F)c1` (centres unmarked) [Compound 65]: the 50% inhibitory concentration (IC50) fell in the range of 0.1 to 1 µM.
To `O=C(NC1CCCCC1)C(c1ccc(-c2ccccc2)cc1)N(C(=O)Cc1cccs1)c1cccc(F)c1` (centres unmarked) [Compound 66] belongs not below 100 µM; to `O=C(NC1CCCCC1)C(c1ccccc1O)N(C(=O)Cc1cccs1)c1cccc(F)c1` (centres unmarked) [Compound 67], 0.1 to 1 µM; to `O=C(NC1CCCCC1)C(c1ccc(Br)cc1)N(C(=O)Cc1cccs1)c1cccc(F)c1` (centres unmarked) [Compound 68], not below 100 µM.
To `Cc1ccccc1C(C(=O)NC1CCCCC1)N(C(=O)Cc1cccs1)C(C)(C)C` (centres unmarked) [Compound 69] belongs not below 100 µM.
For `Cc1ccccc1C(C(=O)NC1CCCCC1)N(C(=O)Cc1cccs1)C1CCCC1` (centres unmarked) [Compound 70], the IC50 lay within 1 to 10 µM.
As for `Cc1ccccc1C(C(=O)NC1CCCCC1)N(Cc1ccccc1)C(=O)Cc1cccs1` (centres unmarked) [Compound 71], the figure is 1 to 10 µM; as for `Cc1ccccc1C(C(=O)NC1CCCC1)N(C(=O)c1ccccn1)c1cccc(F)c1` (centres unmarked) [Compound 72], 1 to 10 µM; as for `Cc1ccccc1C(C(=O)NC1CCCCC1)N(C(=O)Cc1cccs1)c1ccc(Br)c(Cl)c1` (centres unmarked) [Compound 73], 0.1 to 1 µM.
As to `O=C(Cc1cccs1)N(c1cccc(F)c1)C1(C(=O)NC2CCCC2)CCCCCC1` [Compound 74], the IC50 was in the range of 1 to 10 µM.
For `Cc1ccccc1C(C(=O)NC1CCCC1)N(C(=O)CCl)c1ccccc1F` (centres unmarked) [Compound 75], the concentration for half-maximal inhibition (IC50) lay in the range of 1 to 10 µM.
As for `O=C(NC1CCCCC1)C(c1ccncc1)N(C(=O)Cc1cccs1)c1cccc(F)c1` (centres unmarked) [Compound 76], the figure is 1 to 10 µM.
With `COc1ccc(C(C(=O)NC2CCCCC2)N(C(=O)Cc2cccs2)c2cccc(F)c2)cc1` (centres unmarked) [Compound 77], the IC50 is not below 100 µM.
As for `Cc1ccc(C(C(=O)NC2CCCCC2)N(C(=O)Cc2cccs2)c2cccc(F)c2)cc1` (centres unmarked) [Compound 78], the concentration for half-maximal inhibition (IC50) lay in the range of 0.1 to 1 µM.
For the compound `O=C(NC1CCCCC1)C(c1ccc(Cl)cc1)N(C(=O)Cc1cccs1)c1cccc(F)c1` (centres unmarked) [Compound 79], the IC50 is 0.1 to 1 µM.
`Cc1ccccc1C(C(=O)NC1CCCCCC1)N(C(=O)Cc1cccs1)c1cccc(F)c1` (centres unmarked) [Compound 80]: the IC50 is not above 0.1 µM.
Take `O=C(NC1CCCCC1)C(c1ccccn1)N(C(=O)Cc1cccs1)c1cccc(F)c1` (centres unmarked) [Compound 81]: the IC50 lay within 1 to 10 µM.
Take `O=C(NC1CCCCC1)C(Cc1ccccc1)N(C(=O)Cc1cccs1)c1cccc(F)c1` (centres unmarked) [Compound 82]: the IC50 lay within 1 to 10 µM.
